From paper PMC9571063 (Molecules, 2022)
Where two headings read alike, the source gives them in different places.

Tests used:
[1] = biological target: T1, ABL1(E255K)-phosphorylated (Homo sapiens, UniProt P00519, E255K); assay: KINOMEscan; assay type: binding; conditions: read-out: Percent Control
T1 construct: purchased Eurofins DiscoverX KINOMEscan (scanMAX 468)

[2] = biological target: T2, CAMK2B (Homo sapiens, UniProt Q13554); assay: KINOMEscan; assay type: binding; conditions: read-out: Percent Control
T2 construct: purchased Eurofins DiscoverX KINOMEscan (scanMAX 468)

[3] = biological target: T3, CDK7 (Homo sapiens, UniProt P50613); assay: KINOMEscan; assay type: binding; conditions: read-out: Percent Control
T3 construct: purchased Eurofins DiscoverX KINOMEscan (scanMAX 468)

[4] = biological target: T4, CDK9 (Homo sapiens, UniProt P50750); assay: KINOMEscan; assay type: binding; conditions: read-out: Percent Control
T4 construct: purchased Eurofins DiscoverX KINOMEscan (scanMAX 468)

[5] = biological target: T5, CDKL2 (Homo sapiens, UniProt Q92772); assay: KINOMEscan; assay type: binding; conditions: read-out: Percent Control
T5 construct: purchased Eurofins DiscoverX KINOMEscan (scanMAX 468)

[6] = biological target: T6, CSNK2A2 (Homo sapiens, UniProt P19784); assay: KINOMEscan; assay type: binding; conditions: read-out: Percent Control
T6 construct: purchased Eurofins DiscoverX KINOMEscan (scanMAX 468)

[7] = biological target: T7, DDR2 (Homo sapiens, UniProt Q16832); assay: KINOMEscan; assay type: binding; conditions: read-out: Percent Control
T7 construct: purchased Eurofins DiscoverX KINOMEscan (scanMAX 468)

[8] = biological target: T8, EGFR(G719C) (Homo sapiens, UniProt P00533, G719C); assay: KINOMEscan; assay type: binding; conditions: read-out: Percent Control
T8 construct: purchased Eurofins DiscoverX KINOMEscan (scanMAX 468)

[9] = biological target: T9, FGFR4 (Homo sapiens, UniProt P22455); assay: KINOMEscan; assay type: binding; conditions: read-out: Percent Control
T9 construct: purchased Eurofins DiscoverX KINOMEscan (scanMAX 468)

[10] = biological target: T10, FLT3(D835Y) (Homo sapiens, UniProt P36888, D835Y); assay: KINOMEscan; assay type: binding; conditions: read-out: Percent Control
T10 construct: purchased Eurofins DiscoverX KINOMEscan (scanMAX 468)

[11] = biological target: T11, IRAK4 (Homo sapiens, UniProt Q9NWZ3); assay: KINOMEscan; assay type: binding; conditions: read-out: Percent Control
T11 construct: purchased Eurofins DiscoverX KINOMEscan (scanMAX 468)

[12] = biological target: T12, KIT (Homo sapiens, UniProt P10721); assay: KINOMEscan; assay type: binding; conditions: read-out: Percent Control
T12 construct: purchased Eurofins DiscoverX KINOMEscan (scanMAX 468)

[13] = biological target: T13, KIT-autoinhibited (Homo sapiens, UniProt P10721); assay: KINOMEscan; assay type: binding; conditions: read-out: Percent Control
T13 construct: purchased Eurofins DiscoverX KINOMEscan (scanMAX 468)

[14] = biological target: T14, LCK (Homo sapiens, UniProt P06239); assay: KINOMEscan; assay type: binding; conditions: read-out: Percent Control
T14 construct: purchased Eurofins DiscoverX KINOMEscan (scanMAX 468)

[15] = biological target: T15, LTK (Homo sapiens, UniProt P29376); assay: KINOMEscan; assay type: binding; conditions: read-out: Percent Control
T15 construct: purchased Eurofins DiscoverX KINOMEscan (scanMAX 468)

[16] = biological target: T16, NEK6 (Homo sapiens, UniProt Q9HC98); assay: KINOMEscan; assay type: binding; conditions: read-out: Percent Control
T16 construct: purchased Eurofins DiscoverX KINOMEscan (scanMAX 468)

[17] = biological target: T17, NEK9 (Homo sapiens, UniProt Q8TD19); assay: KINOMEscan; assay type: binding; conditions: read-out: Percent Control
T17 construct: purchased Eurofins DiscoverX KINOMEscan (scanMAX 468)

[18] = biological target: T18, NIM1 (Homo sapiens, UniProt Q8IY84); assay: KINOMEscan; assay type: binding; conditions: read-out: Percent Control
T18 construct: purchased Eurofins DiscoverX KINOMEscan (scanMAX 468)

[19] = biological target: T19, NLK (Homo sapiens, UniProt Q9UBE8); assay: KINOMEscan; assay type: binding; conditions: read-out: Percent Control
T19 construct: purchased Eurofins DiscoverX KINOMEscan (scanMAX 468)

[20] = biological target: T20, PAK7 (Homo sapiens, UniProt Q9P286); assay: KINOMEscan; assay type: binding; conditions: read-out: Percent Control
T20 construct: purchased Eurofins DiscoverX KINOMEscan (scanMAX 468)

[21] = biological target: T21, PIP5K2B (Homo sapiens, UniProt P78356); assay: KINOMEscan; assay type: binding; conditions: read-out: Percent Control
T21 construct: purchased Eurofins DiscoverX KINOMEscan (scanMAX 468)

[22] = biological target: T22, PKMYT1 (Homo sapiens, UniProt Q99640); assay: KINOMEscan; assay type: binding; conditions: read-out: Percent Control
T22 construct: purchased Eurofins DiscoverX KINOMEscan (scanMAX 468)

[23] = biological target: T23, QSK (Homo sapiens, UniProt Q9Y2K2); assay: KINOMEscan; assay type: binding; conditions: read-out: Percent Control
T23 construct: purchased Eurofins DiscoverX KINOMEscan (scanMAX 468)

[24] = biological target: T24, RIOK3 (Homo sapiens, UniProt O14730); assay: KINOMEscan; assay type: binding; conditions: read-out: Percent Control
T24 construct: purchased Eurofins DiscoverX KINOMEscan (scanMAX 468)

[25] = biological target: T25, RSK3(Kin.Dom.1-N-terminal) (Homo sapiens, UniProt Q15349); assay: KINOMEscan; assay type: binding; conditions: read-out: Percent Control
T25 construct: RSK3(Kin.Dom.1-N-terminal); purchased Eurofins DiscoverX KINOMEscan (scanMAX 468)

[26] = biological target: T26, TAOK2 (Homo sapiens, UniProt Q9UL54); assay: KINOMEscan; assay type: binding; conditions: read-out: Percent Control
T26 construct: purchased Eurofins DiscoverX KINOMEscan (scanMAX 468)

[27] = biological target: T27, TRKC (Homo sapiens, UniProt Q16288); assay: KINOMEscan; assay type: binding; conditions: read-out: Percent Control
T27 construct: purchased Eurofins DiscoverX KINOMEscan (scanMAX 468)

[28] = biological target: T28, VRK2 (Homo sapiens, UniProt Q86Y07); assay: KINOMEscan; assay type: binding; conditions: read-out: Percent Control
T28 construct: purchased Eurofins DiscoverX KINOMEscan (scanMAX 468)

[29] = biological target: T29, WNK2 (Homo sapiens, UniProt Q9Y3S1); assay: KINOMEscan; assay type: binding; conditions: read-out: Percent Control
T29 construct: purchased Eurofins DiscoverX KINOMEscan (scanMAX 468)

[30] = biological target: T30, YES (Homo sapiens, UniProt P07947); assay: KINOMEscan; assay type: binding; conditions: read-out: Percent Control
T30 construct: purchased Eurofins (KINOMEscan, DiscoverX)

[31] = biological target: T31, Hs_HASPIN (Homo sapiens, UniProt Q8TF76); parameters: method as in ref 13 (a number printed in a supplementary file, which may have a reference list of its own: not looked up in the article's list); conditions: DB18, cited from earlier work
T31 construct: host or cells: bacteria
T31 sequence (Q8TF76 1-798): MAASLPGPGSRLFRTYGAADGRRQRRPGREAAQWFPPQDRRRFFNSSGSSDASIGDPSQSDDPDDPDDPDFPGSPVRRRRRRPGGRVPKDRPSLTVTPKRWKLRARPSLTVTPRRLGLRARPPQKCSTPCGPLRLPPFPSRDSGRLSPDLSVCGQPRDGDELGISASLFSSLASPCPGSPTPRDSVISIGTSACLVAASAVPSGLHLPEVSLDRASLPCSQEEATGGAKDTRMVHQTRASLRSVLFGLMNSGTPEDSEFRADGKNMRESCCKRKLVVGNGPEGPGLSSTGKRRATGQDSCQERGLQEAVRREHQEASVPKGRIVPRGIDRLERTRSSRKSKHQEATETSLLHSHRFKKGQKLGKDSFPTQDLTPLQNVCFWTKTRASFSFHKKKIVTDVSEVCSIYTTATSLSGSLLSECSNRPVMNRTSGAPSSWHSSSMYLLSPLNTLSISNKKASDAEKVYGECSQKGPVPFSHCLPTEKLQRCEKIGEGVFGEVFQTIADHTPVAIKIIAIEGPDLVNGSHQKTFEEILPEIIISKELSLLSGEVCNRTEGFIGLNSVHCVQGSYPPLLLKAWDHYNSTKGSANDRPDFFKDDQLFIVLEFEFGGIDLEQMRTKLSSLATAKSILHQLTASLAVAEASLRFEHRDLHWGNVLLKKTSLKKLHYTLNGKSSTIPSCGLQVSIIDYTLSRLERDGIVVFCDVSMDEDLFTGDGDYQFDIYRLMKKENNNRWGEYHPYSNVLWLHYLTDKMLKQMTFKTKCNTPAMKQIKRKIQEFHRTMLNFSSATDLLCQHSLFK

T27 sequence (Q16288 32-839): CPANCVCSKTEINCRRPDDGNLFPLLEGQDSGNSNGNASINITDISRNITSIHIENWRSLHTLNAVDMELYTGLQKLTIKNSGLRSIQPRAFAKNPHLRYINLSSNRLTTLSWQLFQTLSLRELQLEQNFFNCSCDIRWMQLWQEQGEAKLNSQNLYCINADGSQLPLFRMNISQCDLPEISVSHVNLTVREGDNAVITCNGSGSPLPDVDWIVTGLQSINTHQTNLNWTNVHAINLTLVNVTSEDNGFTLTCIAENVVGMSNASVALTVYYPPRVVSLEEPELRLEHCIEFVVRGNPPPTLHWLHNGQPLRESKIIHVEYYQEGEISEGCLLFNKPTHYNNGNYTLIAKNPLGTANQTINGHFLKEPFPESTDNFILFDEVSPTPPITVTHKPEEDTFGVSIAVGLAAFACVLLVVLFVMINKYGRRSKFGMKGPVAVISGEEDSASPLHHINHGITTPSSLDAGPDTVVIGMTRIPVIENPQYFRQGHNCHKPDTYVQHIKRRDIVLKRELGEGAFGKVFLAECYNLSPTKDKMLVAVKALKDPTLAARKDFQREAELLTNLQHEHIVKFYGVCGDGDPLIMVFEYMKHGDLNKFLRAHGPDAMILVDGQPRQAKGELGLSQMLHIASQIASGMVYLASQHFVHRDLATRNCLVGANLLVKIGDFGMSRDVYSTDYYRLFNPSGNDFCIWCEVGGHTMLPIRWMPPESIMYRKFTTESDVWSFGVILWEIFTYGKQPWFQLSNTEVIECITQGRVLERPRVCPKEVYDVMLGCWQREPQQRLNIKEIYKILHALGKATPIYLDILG
T19 sequence (Q9UBE8 whole entry): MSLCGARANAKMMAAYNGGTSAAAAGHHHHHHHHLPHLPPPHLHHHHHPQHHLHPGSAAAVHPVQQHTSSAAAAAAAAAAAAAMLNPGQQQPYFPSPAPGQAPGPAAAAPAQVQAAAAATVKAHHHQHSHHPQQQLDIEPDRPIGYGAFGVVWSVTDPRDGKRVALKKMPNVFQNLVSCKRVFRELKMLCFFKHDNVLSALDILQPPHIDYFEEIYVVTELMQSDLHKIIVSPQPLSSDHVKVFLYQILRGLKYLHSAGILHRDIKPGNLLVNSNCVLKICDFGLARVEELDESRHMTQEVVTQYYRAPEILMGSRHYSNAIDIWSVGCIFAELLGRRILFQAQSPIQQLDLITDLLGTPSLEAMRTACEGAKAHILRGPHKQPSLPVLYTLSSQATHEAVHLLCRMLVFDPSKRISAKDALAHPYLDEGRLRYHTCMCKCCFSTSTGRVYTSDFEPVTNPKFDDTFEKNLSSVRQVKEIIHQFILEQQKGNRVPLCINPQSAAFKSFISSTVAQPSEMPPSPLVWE
T9 sequence (P22455 22-802): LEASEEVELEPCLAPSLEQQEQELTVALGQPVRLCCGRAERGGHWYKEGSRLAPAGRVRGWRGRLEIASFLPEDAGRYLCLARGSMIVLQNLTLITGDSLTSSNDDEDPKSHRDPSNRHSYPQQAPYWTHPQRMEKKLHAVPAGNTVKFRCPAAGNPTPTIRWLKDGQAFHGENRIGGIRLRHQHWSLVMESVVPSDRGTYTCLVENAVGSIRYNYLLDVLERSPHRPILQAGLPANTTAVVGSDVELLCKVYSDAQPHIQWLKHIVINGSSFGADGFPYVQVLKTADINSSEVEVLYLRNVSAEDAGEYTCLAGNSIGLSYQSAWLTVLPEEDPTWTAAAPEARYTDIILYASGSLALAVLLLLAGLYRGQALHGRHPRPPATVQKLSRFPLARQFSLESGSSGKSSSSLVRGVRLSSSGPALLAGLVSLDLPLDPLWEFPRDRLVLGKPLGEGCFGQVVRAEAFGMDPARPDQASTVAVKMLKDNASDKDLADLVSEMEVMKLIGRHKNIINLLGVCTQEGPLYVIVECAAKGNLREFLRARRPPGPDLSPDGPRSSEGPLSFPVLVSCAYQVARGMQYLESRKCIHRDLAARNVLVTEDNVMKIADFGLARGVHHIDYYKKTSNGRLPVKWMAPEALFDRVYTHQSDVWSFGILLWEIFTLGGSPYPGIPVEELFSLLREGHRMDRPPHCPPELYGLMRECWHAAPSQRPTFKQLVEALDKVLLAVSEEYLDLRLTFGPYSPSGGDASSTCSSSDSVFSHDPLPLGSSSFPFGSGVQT
T14 sequence (P06239 whole entry): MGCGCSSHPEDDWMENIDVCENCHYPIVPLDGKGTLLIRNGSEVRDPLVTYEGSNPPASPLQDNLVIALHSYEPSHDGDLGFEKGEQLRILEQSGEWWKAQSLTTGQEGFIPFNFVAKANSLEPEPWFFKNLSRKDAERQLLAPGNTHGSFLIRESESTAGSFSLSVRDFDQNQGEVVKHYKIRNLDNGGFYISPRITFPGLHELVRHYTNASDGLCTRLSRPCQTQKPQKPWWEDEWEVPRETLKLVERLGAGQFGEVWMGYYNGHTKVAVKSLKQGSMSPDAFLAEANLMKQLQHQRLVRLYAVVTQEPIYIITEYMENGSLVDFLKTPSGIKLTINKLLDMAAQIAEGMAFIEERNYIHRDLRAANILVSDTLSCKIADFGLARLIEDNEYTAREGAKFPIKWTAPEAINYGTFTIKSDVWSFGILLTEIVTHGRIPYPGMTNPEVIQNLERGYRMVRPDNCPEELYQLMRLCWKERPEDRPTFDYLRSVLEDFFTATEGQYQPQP
T13 sequence (P10721 26-976): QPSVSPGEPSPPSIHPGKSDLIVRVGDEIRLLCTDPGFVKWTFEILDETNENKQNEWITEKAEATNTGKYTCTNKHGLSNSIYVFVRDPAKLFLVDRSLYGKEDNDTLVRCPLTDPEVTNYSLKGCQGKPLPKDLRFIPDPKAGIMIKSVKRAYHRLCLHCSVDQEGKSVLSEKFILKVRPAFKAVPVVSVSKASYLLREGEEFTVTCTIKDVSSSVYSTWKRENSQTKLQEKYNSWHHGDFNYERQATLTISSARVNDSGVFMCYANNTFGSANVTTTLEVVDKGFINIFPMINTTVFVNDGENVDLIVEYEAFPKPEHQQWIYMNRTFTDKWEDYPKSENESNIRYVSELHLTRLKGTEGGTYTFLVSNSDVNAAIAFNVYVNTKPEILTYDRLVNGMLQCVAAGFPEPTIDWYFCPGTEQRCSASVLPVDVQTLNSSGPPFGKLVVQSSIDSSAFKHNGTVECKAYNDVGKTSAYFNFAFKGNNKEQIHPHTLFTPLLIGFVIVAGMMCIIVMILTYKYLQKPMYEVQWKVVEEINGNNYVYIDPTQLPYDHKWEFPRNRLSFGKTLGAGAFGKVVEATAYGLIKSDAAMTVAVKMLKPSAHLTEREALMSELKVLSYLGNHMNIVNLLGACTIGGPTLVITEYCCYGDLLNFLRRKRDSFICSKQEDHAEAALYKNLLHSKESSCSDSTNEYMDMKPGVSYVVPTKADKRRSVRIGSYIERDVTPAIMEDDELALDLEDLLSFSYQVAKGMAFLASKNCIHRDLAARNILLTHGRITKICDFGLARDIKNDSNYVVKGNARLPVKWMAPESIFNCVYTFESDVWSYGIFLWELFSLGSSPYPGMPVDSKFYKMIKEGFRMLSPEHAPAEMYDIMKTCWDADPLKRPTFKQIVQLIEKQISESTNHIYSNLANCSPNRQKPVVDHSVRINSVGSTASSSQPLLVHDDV
T12 sequence (P10721 26-976): as above
T11 sequence (Q9NWZ3 whole entry): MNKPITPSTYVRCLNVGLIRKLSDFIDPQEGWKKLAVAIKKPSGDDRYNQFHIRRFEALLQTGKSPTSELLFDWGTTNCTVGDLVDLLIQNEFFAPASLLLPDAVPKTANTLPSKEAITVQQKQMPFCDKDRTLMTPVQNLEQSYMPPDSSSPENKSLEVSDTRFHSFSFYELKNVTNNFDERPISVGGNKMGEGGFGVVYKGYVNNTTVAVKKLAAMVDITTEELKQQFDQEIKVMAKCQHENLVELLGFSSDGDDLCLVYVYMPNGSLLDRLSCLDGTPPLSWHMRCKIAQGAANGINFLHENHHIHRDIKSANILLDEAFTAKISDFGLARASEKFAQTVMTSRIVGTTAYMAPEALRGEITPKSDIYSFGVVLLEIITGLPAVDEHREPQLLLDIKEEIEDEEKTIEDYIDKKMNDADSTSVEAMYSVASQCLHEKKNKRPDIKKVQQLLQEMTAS
T20 sequence (Q9P286 whole entry): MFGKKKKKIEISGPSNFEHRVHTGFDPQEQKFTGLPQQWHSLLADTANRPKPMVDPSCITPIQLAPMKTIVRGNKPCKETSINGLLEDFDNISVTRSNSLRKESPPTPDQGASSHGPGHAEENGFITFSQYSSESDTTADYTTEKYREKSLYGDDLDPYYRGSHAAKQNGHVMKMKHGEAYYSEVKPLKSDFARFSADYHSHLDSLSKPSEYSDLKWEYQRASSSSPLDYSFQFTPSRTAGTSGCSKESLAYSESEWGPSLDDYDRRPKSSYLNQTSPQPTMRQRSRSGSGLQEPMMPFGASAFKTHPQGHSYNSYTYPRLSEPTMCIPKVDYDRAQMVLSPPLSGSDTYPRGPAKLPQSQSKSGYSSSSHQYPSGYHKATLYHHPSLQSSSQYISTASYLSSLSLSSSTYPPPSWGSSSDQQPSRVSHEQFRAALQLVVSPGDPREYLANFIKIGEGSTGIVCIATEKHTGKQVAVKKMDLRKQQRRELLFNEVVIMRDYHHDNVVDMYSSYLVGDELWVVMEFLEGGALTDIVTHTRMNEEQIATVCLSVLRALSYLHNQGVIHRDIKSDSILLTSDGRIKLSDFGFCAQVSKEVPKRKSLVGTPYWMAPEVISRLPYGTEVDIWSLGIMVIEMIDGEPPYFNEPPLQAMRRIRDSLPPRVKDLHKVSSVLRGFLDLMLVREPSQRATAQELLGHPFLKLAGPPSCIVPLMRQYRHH

SMILES: Cc1ccc(-n2cc(COc3cccc4cnc(Nc5cccc(Cl)c5)nc34)nn2)c([N+](=O)[O-])c1 [DB18]
- remaining binding at 1 µM [1]: 97%
- remaining binding at 1 µM [2]: 100%
- remaining binding at 1 µM [3]: 100%
- remaining binding at 1 µM [4]: 100%
- remaining binding at 1 µM [5]: 97%
- remaining binding at 1 µM [6]: 61%
- remaining binding at 1 µM [7]: 100%
- remaining binding at 1 µM [8]: 100%
- remaining binding at 1 µM [9]: 100%
- remaining binding at 1 µM [10]: 29%
- remaining binding at 1 µM [11]: 100%
- remaining binding at 1 µM [12]: 100%
- remaining binding at 1 µM [13]: 97%
- remaining binding at 1 µM [14]: 100%
- remaining binding at 1 µM [15]: 80%
- remaining binding at 1 µM [16]: 100%
- remaining binding at 1 µM [17]: 100%
- remaining binding at 1 µM [18]: 100%
- remaining binding at 1 µM [19]: 87%
- remaining binding at 1 µM [20]: 92%
- remaining binding at 1 µM [21]: 100%
- remaining binding at 1 µM [22]: 62%
- remaining binding at 1 µM [23]: 96%
- remaining binding at 1 µM [24]: 100%
- remaining binding at 1 µM [25]: 100%
- remaining binding at 1 µM [26]: 98%
- remaining binding at 1 µM [27]: 59%
- remaining binding at 1 µM [28]: 100%
- remaining binding at 1 µM [29]: 67%
- remaining binding at 1 µM [30]: 100%
- % of residual activity Hs_HASPIN ([31]; 1 µM): 96%
- % of residual activity Hs_HASPIN ([31]; 10 µM): 94%
